Like-named read-outs stand apart in the source and are kept apart here.
Assays:
[1] = test system: VSV (vesicular stomatitis virus); format: cell-based
[2] = test system: clotting factors of plasma; test: Clotting factors before and after processing, automated coagulation analyzer; details: 60 minutes of circulatory processing
clotting factor VIII = test: Impact on the activity of clotting factor VIII (detection kit); details: 60-minute circulatory processing
[3] = Impact on the pH value of whole blood; format: physicochemical; details: for pH value in whole blood: 60 minutes of circulatory processing
complement C3 = test: Impact on the content of complement C3 (single-diffusion plate); details: 60 minutes of circulatory processing
clotting factor IX = test: Impact on the activity of clotting factor IX (detection kit); details: for Activity of factor IX (%): 60 minutes of circulatory processing
Sindbis virus (SV) = format: cell-based
Sindbis = format: cell-based, Sindbis virus
VSV = format: cell-based, vesicular stomatitis virus; details: for residual virus VSV: 1500 ml plasma, bag with three pressed folded lines
[4] = Impact on the content of the plasma protein (automatic biochemical analyzer); details: 60 minutes of circulatory processing
[5] = Impact on the content of Inorganic Salt (automatic biochemical analyzer); details: 60 minutes of circulatory processing

SMILES: CN(C)c1ccc2nc3ccc(=[N+](C)C)cc-3sc2c1 [methylene blue]
- virus titer left (VSV) ([1]; Volume of blood 1000 ml, circulatory time 60 mins): ≦−0.5 lg TCID50
- virus titer left (VSV) ([1]; Volume of blood 2000 ml, circulatory time 120 mins): ≦−0.5 lg TCID50
- APTT clotting time [2]: 74.0 ″
- Clotting factor II clotting time [2]: 25.0 ″
- Clotting factor IX clotting time [2]: 66.7 ″
- Clotting factor V clotting time [2]: 31.8 ″
- Clotting factor VII clotting time [2]: 26.8 ″
- Clotting factor VIII clotting time [2]: 83.6 ″
- Clotting factor X clotting time [2]: 32.6 ″
- Clotting factor XI clotting time [2]: 82.6 ″
- Clotting factor XII clotting time [2]: 70.2 ″
- PT clotting time [2]: 19.6 ″
- APTT (reduced) ([2]; versus control plasma): 17.5%
- Clotting factor II (reduced) ([2]; versus control plasma): 1.6%
- Clotting factor IX (reduced) ([2]; versus control plasma): 4.9%
- Clotting factor V (reduced) ([2]; versus control plasma): 8.9%
- Clotting factor VII (reduced) ([2]; versus control plasma): 7.2%
- Clotting factor VIII (reduced) ([2]; versus control plasma): 7.2%
- Clotting factor XI (reduced) ([2]; versus control plasma): 6.7%
- Clotting factor XII (reduced) ([2]; versus control plasma): 3.7%
- PT (reduced) ([2]; versus control plasma): 31.5%
- range of decrease of the activity of clotting factor VIII (clotting factor VIII): less than 20%
- pH value in whole blood ([3]; batch I): 7.35
- pH value in whole blood ([3]; batch II): 7.38
- pH value in whole blood ([3]; batch III): 7.36
- change on the pH value of the whole blood ([3]; processing method of the invention): does not cause any change on the pH value
- reduction of the content of the complement C3 compared to a reference (complement C3): about 5%
- content of the complement C3 (complement C3; batch I): 5.64 mg/mL
- content of the complement C3 (complement C3; batch II): 5.43 mg/mL
- content of the complement C3 (complement C3; batch III): 5.61 mg/mL
- range of decrease of the activity of clotting factor IX (clotting factor IX; 60-minute circulatory processing): about 10%
- Activity of factor IX (%) (clotting factor IX; batch I): 106.1%
- Activity of factor IX (%) (clotting factor IX; batch II): 125.2%
- Activity of factor IX (%) (clotting factor IX; batch III): 89.4%
- virus titer left Sindbis (Sindbis virus (SV)): ≦−0.05 lg TCID50
- Sindbis virus illuminated (titer reduction) (Sindbis): more than 5 LgTCID50
- reduction of virus titer Sindbis (Sindbis): over 5.0 Lg TCID50
- virus liter left Sindbis (Sindbis): ≦−0.5 Lg TCID50
- residual virus VSV (VSV; Illumination time 1 h, 50 ml/min): 2.63 Lg TCID50
- residual virus VSV (VSV; Illumination time 2 h, 50 ml/min): −0.13 Lg TCID50
- residual virus VSV (VSV; Illumination time 4 h, 50 ml/min): ≦−0.50 Lg TCID50
- reduction of virus titer VSV (VSV; Simulation 1, 1500 ml plasma, 50 ml/min): over 5.0 Lg TCID50
- virus liter left VSV (VSV; illumination path 2.0 m, illumination time 26.0 sec, 50 ml/min): ≦−0.5 Lg TCID50
- VSV illuminated (titer reduction) (VSV; illumination path 2 meter, 26 seconds, 50 ml/min): more than 5 LgTCID50
- virus liter left VSV (VSV; illumination path 2.5 m, illumination time 32.5 sec, 50 ml/min): ≦−0.5 Lg TCID50
- virus liter left VSV (VSV; illumination path 3.0 m, illumination time 39.0 sec, 50 ml/min): ≦−0.5 Lg TCID50
- virus liter left VSV (VSV; illumination path 3.5 m, illumination time 45.5 sec, 50 ml/min): ≦−0.5 Lg TCID50
- virus liter left VSV (VSV; illumination path 4.0 m, illumination time 52.0 sec, 50 ml/min): ≦−0.5 Lg TCID50
- virus titer left (VSV) (VSV; standard 15 cm bag with five pressed folded lines, plasma flowing speed 50): ≦−0.50 Lg TCID50
- virus titer left (VSV) (VSV; standard 15 cm bag with five pressed folded lines, plasma flowing speed 80): 0.13 Lg TCID50
- virus titer left (VSV) (VSV; standard 15 cm bag with three pressed folded lines, plasma flowing speed 50): −0.25 Lg TCID50
- virus titer left (VSV) (VSV; standard 15 cm bag with three pressed folded lines, plasma flowing speed 80): 1.50 Lg TCID50
- virus titer left (VSV) (VSV; standard 15 cm cut-through plasma bag, plasma flowing speed 50): 4.25 Lg TCID50
- virus titer left (VSV) (VSV; standard 15 cm cut-through plasma bag, plasma flowing speed 80): 5.13 Lg TCID50
- Albumin content [4]: 36.1 g/L
- Glucose content [4]: 21.2 mM/l
- Total protein content [4]: 58.8 g/L
- triglyceride content [4]: 1.62 mM/l
- Ca content [5]: 1.57 mM/l
- Cho content [5]: 3.82 mM/l
- Cl content [5]: 58.7 mM/l
- K content [5]: 3.22 mM/l
- Mg content [5]: 0.67 mM/l
- Na content [5]: 135.1 mM/l
- P content [5]: 1.19 mM/l

Source: patent US20070178436A1, “Method of inactivating virus in circular blood and its applications in treating viral diseases” (Beijing Jingjing Medical Equipment CO., Ltd., priority 2003, published 2007)
